Data on 12 compounds can be found in patent US7781394B2 (Institut Pasteur, priority 2006, dated 2010).

Each structure is given as a SMILES string. Like-named read-outs stand apart in the source and are kept apart here.

What all share (type): biochemical
Test [1] concerns the target T1, His-RCL (deoxynucleoside 5′-monophosphate N-glycosidase) (Rattus norvegicus, UniProt O35820).
T1 construct: made in house; host or cells: E. coli Bli5 (BL21 (DE3) pDIA17), plasmid pET28aRcl
T1 sequence (O35820 1-163): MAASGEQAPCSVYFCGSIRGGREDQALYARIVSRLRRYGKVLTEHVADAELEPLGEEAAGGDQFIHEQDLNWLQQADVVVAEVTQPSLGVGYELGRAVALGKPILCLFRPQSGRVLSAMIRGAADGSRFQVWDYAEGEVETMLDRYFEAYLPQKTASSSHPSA
Description: Kinetic parameters of His-RCL (wild-type) with dNMP substrates, initial velocity measurements.
Description: The enzyme activity was determined either spectrophotometrically by following one of the reaction products, hypoxanthine or deoxyribose 5-phosphate, or by HPLC separation and UV detection of the released nucleobase and the remaining substrate. a) dIMP was used as a substrate and the hypoxanthine released oxidized to uric acid by xanthine oxidase. […] The decrease in absorbance at 340 nm was followed on a Amersham Biosciences Ultrospec 3100 pro spectrophotometer, using a millimolar absorbance coefficient of 6.22. […] Initial velocity experiments were carried out at variable concentrations of the six deoxynucleoside 5'-monophosphate: dAMP, dCMP, dGMP, dIMP, dTMP and dUMP (Table 1).

The target in test [2] is T2, RCL (Rattus norvegicus, UniProt O35820).
T2 construct: made in house; host or cells: E. coli Bli5 (BL21 (DE3) pDIA17); pET24dRcl (untagged) or pET28aRcl (His-tagged)
T2 sequence (O35820 1-163): T1 sequence (O35820 1-163)
Description: Compounds tested as substrate or inhibitor of RCL enzyme activity (dGMP hydrolysis). Particulars: for substrate or inhibitor of the enzyme activity: versus dGMP as substrate; for Ki: competitive for dGMP, double reciprocal plot. The procedure: The enzyme activity was determined either spectrophotometrically by following one of the reaction products, […] or deoxyribose 5-phosphate, or by HPLC separation and UV detection of the released nucleobase and the remaining substrate.
The initial velocity of the reaction was measured either at variable concentration of dGMP both in the absence and presence of inhibitors, or at fixed concentration of dGMP and variable concentrations of inhibitors allowing the testing of the nature of the inhibition.

For test [3], the target named is T2, RCL. Kind of test: pH dependence of RCL activity at saturating substrate. Particulars: for % of the maximal activity: pH 7.0; for % of the enzyme activity remained: pH 8.0; for pH optimum: saturating concentrations of substrate. As to the method:
Catalytic properties of the recombinant proteins. […] 50% of the maximal activity was still observed at pH 7.0 in the case of dCMP while it was only 20% in the case of dGMP. In both cases at pH 8.0, only 10% of the enzyme activity remained. Several metals were tested for their ability to stimulate or inhibit the reaction: Ca^2+, Mg^2+, Zn^2+, Na^+, and K^+.

[4] abbreviates: Table 3, additional substrates of His-RCL, in 1/s.
[5] abbreviates: Table 3, additional substrates of His-RCL, read-out: Km.
Setting [6] is: Table 1, substrate of His-RCL, five concentrations.
The mark [7] stands for this setting: pyrimidine deoxynucleotides, read-out: Km of RCL.
Setting [8] is: purine deoxynucleotides, read-out: Km of RCL.

With `COc1nc(N)nc2c1ncn2[C@H]1C[C@H](O)[C@@H](COP(=O)(O)O)O1` [06-methyl-dGMP], the kcat in test [1] (setting [4]) turned out to be 0.033. Further, the Km in test [1] (setting [5]) was 61 ± 16 µM.

Consider `Nc1nc2c(ncn2[C@H]2C[C@H](OP(=O)(O)O)[C@@H](CO)O2)c(=O)[nH]1` [2′-deoxyguanosine 3′-monophosphate], for which the “substrate or inhibitor of the enzyme activity” value (“substrate or inhibitor” for short) on RCL [2] was “neither a substrate nor an inhibitor”.

For the compound `Nc1ccn([C@H]2C[C@H](O)[C@@H](COP(=O)(O)O)O2)c(=O)n1` [dCMP], on RCL [3], the “% of the maximal activity” value was found to be 50%, the “% of the enzyme activity remained” value turned out to be 10% and the pH optimum is listed as around 6.0 pH. The kcat in test [1] (setting [6]) turned out to be 0.0231 s⁻¹. For the same compound, in test [1] (setting [7]), the Michaelis-Menten constant (Km) is 4000 µM.

Regarding `Cc1cn([C@H]2C[C@H](O)[C@@H](COP(=O)(O)O)O2)c(=O)[nH]c1=O` [dTMP], in test [1] (setting [7]), the Km was above 50000 µM.

As to `NC1=NC(=O)C2=NC(=O)N([C@H]3C[C@H](O)[C@@H](COP(=O)(O)O)O3)C2=N1` [8-oxo-dGMP, 8-oxo-deoxyguanosine 5′-monophosphate], the “substrate or inhibitor” value on RCL [2] is “neither a substrate nor an inhibitor”.

As for `C[n+]1cn([C@H]2C[C@H](O)[C@@H](COP(=O)(O)O)O2)c2nc(N)[nH]c(=O)c21` [N7-methyl-dGMP], the kcat in test [1] (setting [4]) is on record as 2.376. Moreover, the Km in test [1] (setting [5]) worked out at 470 ± 68 µM.

With `Nc1nc2c(ncn2[C@@H]2O[C@H](COP(=O)(O)O)[C@@H](O)[C@H]2O)c(=O)[nH]1` [GMP], on RCL [2], the Ki worked out at 20 µM and the “substrate or inhibitor” value is “competitive inhibitors”.

Consider `Nc1ncnc2c1ncn2[C@H]1C[C@H](O)[C@@H](COP(=O)(O)O)O1` [dAMP], for which the kcat in test [1] (setting [6]) came out at 0.0066 s⁻¹. The Km in test [1] (setting [8]) is 250 µM.

`O=c1ccn([C@H]2C[C@H](O)[C@@H](COP(=O)(O)O)O2)c(=O)[nH]1` [dUMP]: in test [1] (setting [6]), the kcat was determined as 0.158 s⁻¹. Besides, in test [1] (setting [7]), the Km was 15000 µM.

Take `Nc1nc2c(ncn2[C@H]2C[C@H](O)[C@@H](COP(=O)(O)O)O2)c(=O)[nH]1` [dGMP]: at RCL [3], the “% of the maximal activity” value came to 20%. For the same compound, the “% of the enzyme activity remained” value on RCL [3] came out at 10%. Also, the pH optimum at RCL [3] was around 6.0 pH. Also, the Vmax in test [1] worked out at 0.09 U. mg^−1. Further, the kcat in test [1] (setting [6]) turned out to be 0.0297 s⁻¹; in test [1] (Table 2, Wt His-RCL, dGMP 250 μM to 20 mM) it was 0.0298 s⁻¹; in test [1] (setting [4]), 0.033; in test [1] (corresponds to Vmax) it was 0.0268 s⁻¹. Besides, the Km amounted to 77 ± 20 µM in test [1] (setting [5]) and 50 µM in test [1] (setting [8]). Also, the “times more efficiently cleaved than dAMP” value in test [1] (kcat/Km comparison) came out at 20 times. The “times more efficiently cleaved than dIMP” value in test [1] (kcat/Km comparison) is recorded as 40 times.

In the case of `CSc1nc(N)nc2c1ncn2[C@@H]1O[C@H](COP(=O)(O)O)[C@@H](O)[C@H]1O`, at RCL [2], the Ki turned out to be 10 µM and the “substrate or inhibitor” value was “competitive inhibitors”.

In the case of `CCNc1nc2c(ncn2[C@H]2C[C@H](O)[C@@H](COP(=O)(O)O)O2)c(=O)[nH]1` [N2-ethyl-dGMP], the kcat in test [1] (setting [4]) turned out to be 0.0528. Moreover, the Michaelis constant (Km) in test [1] (setting [5]) was 71 ± 8 µM.
